Measured values from patent US6875760B2 (Novo Nordisk A/S, priority 1999, dated 2005).
pIC50: −log10 of the molar value.

These compounds were tested against T1, human glucagon receptor (Homo sapiens, UniProt P47871) (assay: Glucagon Binding Assay (III)). Conditions: BHK cell membranes, WGA SPA beads, 125I-glucagon; read-out: Glu Bd Assay (III) IC50.
T1 construct: expressed in transfected cells; host or cells: BHK (baby hamster kidney) cells
How it was run: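 Membranes from BHK cells transfected with the human receptor, prepared at 4 °C, were used in a WGA-bead scintillation proximity binding format. Plates were shaken for 4 hours, left to settle 8–48 hours and then counted. Non-specific binding was defined with 500 nM glucagon.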

T1 sequence (P47871 26-477): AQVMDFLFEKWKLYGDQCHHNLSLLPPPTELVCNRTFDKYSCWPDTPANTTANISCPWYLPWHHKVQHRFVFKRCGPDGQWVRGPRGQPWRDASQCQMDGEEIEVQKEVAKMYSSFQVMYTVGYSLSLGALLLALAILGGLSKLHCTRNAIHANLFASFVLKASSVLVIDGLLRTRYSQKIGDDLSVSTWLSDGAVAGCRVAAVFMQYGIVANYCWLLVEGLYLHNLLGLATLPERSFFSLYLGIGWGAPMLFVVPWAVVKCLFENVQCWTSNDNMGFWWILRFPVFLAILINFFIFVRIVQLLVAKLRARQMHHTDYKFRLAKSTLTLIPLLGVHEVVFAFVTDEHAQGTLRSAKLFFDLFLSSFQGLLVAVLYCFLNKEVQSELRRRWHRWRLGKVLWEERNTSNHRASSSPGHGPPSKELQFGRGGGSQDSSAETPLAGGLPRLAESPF

Row | Compound | pIC50
1 | O=C(O)CCNC(=O)c1ccc(CN(C(=O)Nc2ccc(OC(F)(F)F)cc2)C2CCC(=C3CC3)CC2)cc1 (stereo not drawn) [Example 248, 3-{4-[1-(4-Cyclopropylidenecyclohexyl)-3-(4-trifluoromethoxyphenyl)ureidomethyl]benzoylamino}propionic acid] | 6.24
2 | O=C(O)CCNC(=O)c1ccc(CN(C(=O)Nc2ccc(OC(F)(F)F)cc2)c2ccc(N3CCCCC3)cc2)cc1 [Example 434, 3-{4-[1-(4-Piperidin-1-ylphenyl)-3-(4-trifluoromethoxyphenyl)ureidomethyl]benzoylamino}propionic acid] | 6.90
3 | O=C(Nc1nn[nH]n1)c1ccc(CN(C(=O)Nc2ccc(OC(F)(F)F)cc2)c2ccc(C3CCCCC3)cc2)cc1 [Example 291, 4-[1-(4-Cyclohexylphenyl)-3-(4-trifluoromethoxyphenyl)ureidomethyl]-N-(2H-tetrazol-5-yl)benzamide] | 7.38
4 | CCC(C)c1ccc(N(Cc2ccc(C(=O)Nc3nn[nH]n3)cc2)C(=O)Nc2ccc(S(C)(=O)=O)cc2)cc1 (stereo not drawn) [Example 448, 4-[1-(4-sec-Butylphenyl)-3-(4-methylsulfonylphenyl)ureidomethyl]-N-(2H-tetrazol-5-yl)benzamide] | 5.83
5 | O=C(Nc1nn[nH]n1)c1ccc(CN(C(=O)Nc2cccc(S(=O)(=O)CC3CC3)c2)c2ccc(C3CCCCC3)cc2)cc1 [Example 470] | 6.94
6 | CC(C)Cc1ccc(C(=O)N(Cc2ccc(C(=O)Nc3nn[nH]n3)cc2)c2ccc(N3CCCCC3)cc2)cc1 [Example 518, 4-{[(4-Isobutylbenzoyl)-(4-piperidin-1-ylphenyl)amino]methyl}-N-(2H-tetrazol-5-yl)benzamide] | 5.83
7 | CSc1ccc(NC(=O)N(Cc2ccc(C(=O)Nc3nn[nH]n3)cc2)c2ccc(C3CCCCC3)cc2)cc1 [Example 298, 4-[1-(4-Cyclohexylphenyl)-3-(4-methylsulfanylphenyl)ureidomethyl]-N-(2H-tetrazol-5-yl)benzamide] | 7.42
8 | CCCCOc1ccc(NC(=O)N(Cc2ccc(C(=O)Nc3nn[nH]n3)cc2)c2ccc(C3CCCCC3)cc2)cc1S(C)(=O)=O [Example 368, 4-[3-(4-Butoxy-3-methylsulfonylphenyl)-1-(4-cyclohexylphenyl)ureidomethyl]-N-(2H-tetrazol-5-yl)benzamide] | 7.43
9 | O=C(Nc1nn[nH]n1)c1ccc(CN(C(=O)Nc2ccccc2)c2ccc(C3CCCCC3)cc2)cc1 [Example 279, 4-[1-(4-Cyclohexylphenyl)-3-phenylureidomethyl]-N-(2H-tetrazol-5-yl)benzamide] | 7.08
10 | O=C(Nc1nn[nH]n1)c1ccc(CN(C(=O)Nc2ccc(OC(F)(F)F)cc2)c2ccc(C3=CCCCC3)cc2)cc1 [Example 307, 4-[1-(4-Cyclohex-1-enylphenyl)-3-(4-trifluoromethoxyphenyl)ureidomethyl]-N-(2H-tetrazol-5-yl)benzamide] | 7.30
11 | CC(Oc1ccc(OC(F)(F)F)cc1)C(=O)N(Cc1ccc(C(=O)Nc2nn[nH]n2)cc1)CC(c1ccccc1)c1ccccc1 (stereo not drawn) [Example 530, 4-({(2,2-Diphenylethyl)-[2-(4-trifluoromethoxyphenoxy)propionyl]amino}methyl)-N-(2H-tetrazol-5-yl)benzamide] | 5.40
12 | CC(C)(C)c1ccc(N(Cc2ccc(C(=O)Nc3nn[nH]n3)cc2)C(=O)Nc2ccc3ncsc3c2)cc1 [Example 257, 4-[3-Benzothiazol-6-yl-1-(4-tert-butylphenyl)ureidomethyl]-N-(2H-tetrazol-5-yl)benzamide] | 6.16
13 | O=C(O)CCNC(=O)c1ccc(CN(C(=O)Nc2ccc(OC(F)(F)F)cc2)c2ccc(OC(F)(F)F)cc2)cc1 [Example 438, 3-{4-[1,3-Bis(4-trifluoromethoxyphenyl)ureidomethyl]benzoylamino}propionic acid] | 6.54
14 | O=C(O)CCNC(=O)c1ccc(CN(C(=O)Nc2ccc(OC(F)(F)F)cc2)[C@H]2CC[C@H](OC(=O)Nc3ccc(OC(F)(F)F)cc3)CC2)cc1 [Example 97, 3-{4-[1-(trans-4-(4-Trifluoromethoxyphenylcarbamoyloxy)cyclohexyl)-3-(4-trifluoromethoxyphenyl)ureidomethyl]benzoylamino}propionic acid] | 5.78
15 | O=C(Nc1nn[nH]n1)c1ccc(CN(C(=O)Nc2ccc(F)c(C(F)(F)F)c2)c2ccc(C3=CCCCC3)cc2)cc1 [Example 328, 4-[1-(4-Cyclohex-1-enylphenyl)-3-(4-fluoro-3-trifluoromethylphenyl)ureidomethyl]-N-(2H-tetrazol-5-yl)benzamide] | 7.85
16 | O=C(O)CCNC(=O)c1ccc(CN(C(=O)Nc2ccc(OC(F)(F)F)cc2)[C@H]2CC[C@H](c3ccccc3)CC2)cc1 [Example 81, 3-{4-[1-(4-trans-Phenylcyclohexane)-3-(4-trifluoromethoxyphenyl)ureidomethyl]benzoylamino}propionic acid] | 6.84
17 | O=C(Nc1nn[nH]n1)c1ccc(CN(C(=O)Nc2cc(Cl)sc2Cl)c2ccc(C3CCCCC3)cc2)cc1 [Example 335, 4-[1-(4-Cyclohexylphenyl)-3-(2,5-dichlorothiophen-3-yl)ureidomethyl]-N-(2H-tetrazol-5-yl)benzamide] | 5.96
18 | CC(C)(C)c1ccc(N(Cc2ccc(C(=O)Nc3nn[nH]n3)cc2)C(=O)Nc2cccc(S(=O)(=O)N3CCCCC3)c2)cc1 [Example 277] | 6.39

Now from value to compound:

Row | pIC50 | Compound
19 | 7.37 | CCC(C)(C)C1CCC(N(Cc2ccc(C(=O)NCCC(=O)O)cc2)C(=O)Nc2ccc(OC(F)(F)F)cc2)CC1 (stereo not drawn) [Example 87, 3-{4-[1-[4-(1,1-Dimethylpropyl)cyclohexyl]-3-(4-trifluoromethoxyphenyl)ureidomethyl]benzoylamino}propionic acid]
20 | 5.70 | O=C(O)CCNC(=O)c1ccc(CN(C(=O)Nc2ccc(OC(F)(F)F)cc2)c2cnc3ccccc3c2)cc1 [Example 436, 3-{4-[1-Quinolin-3-yl-3-(4-trifluoromethoxyphenyl)ureidomethyl]benzoylamino}propionic acid]
21 | 6.31 | CCC1CCC(N(Cc2ccc(C(=O)NCCC(=O)O)cc2)C(=O)Nc2cc(C(F)(F)F)cc(C(F)(F)F)c2)C1 (stereo not drawn) [Example 85, 3-{4-[3-(3,5-Bis(trifluoromethyl)phenyl)-1-(3-ethylcyclopentyl)ureidomethyl]benzoylamino}propionic acid]
22 | 7.89 | Cc1cc(NC(=O)N(Cc2ccc(C(=O)Nc3nn[nH]n3)cc2)c2ccc(C3=CCCCC3)cc2)cc(C(F)(F)F)c1 [Example 362, 4-[1-(4-Cyclohex-1-enylphenyl)-3-(3-methyl-5-trifluoromethylphenyl)ureidomethyl]-N-(2H-tetrazol-5-yl)benzamide]
23 | 7.68 | CC(C)(C)C1CCC(N(Cc2ccc(C(=O)NCCC(=O)O)cc2)C(=O)Nc2ccc3c(c2)C(=O)N(CC2CC2)C3=O)CC1 (stereo not drawn) [Example 641, 3-{4-[1-(4-tert-Butylcyclohexyl)-3-(N′-[cyclopropylmethyl]phthalimid-4-yl)ureidomethyl]benzoylamino}propionic acid]
24 | 6.25 | CS(=O)(=O)Cc1cccc(NC(=O)N(Cc2ccc(C(=O)Nc3nn[nH]n3)cc2)c2ccc(C3CCCCC3)cc2)c1 [Example 369, 4-[1-(4-Cyclohexylphenyl)-3-(3-methylsulfonylmethylphenyl)ureidomethyl]-N-(2H-tetrazol-5-yl)benzamide]
25 | 7.38 | CS(=O)(=O)c1cccc(NC(=O)N(Cc2ccc(C(=O)Nc3nn[nH]n3)cc2)c2ccc(C3CCCCC3)cc2)c1 [Example 444, 4-[1-(4-Cyclohexylphenyl)-3-(3-methylsulfonylphenyl)ureidomethyl]-N-(2H-tetrazol-5-yl)benzamide]
26 | 6.60 | CCCCc1ccc(N(Cc2ccc(C(=O)Nc3nn[nH]n3)cc2)C(=O)Nc2ccccc2)cc1 [Example 280, 4-[1-(4-Butylphenyl)-3-phenylureidomethyl]-N-(2H-tetrazol-5-yl)benzamide]
27 | 6.25 | CC(C)c1ccc(NC(=O)N(Cc2ccc(C(=O)NCCC(=O)O)cc2)CC(C)c2ccccc2)cc1 (stereo not drawn) [Example 50, 3-{4-[3-(4-Isopropylphenyl)-1-(2-phenylpropyl)ureidomethyl]benzoylamino}propionic acid]
28 | 6.18 | CC(C)(C)C1CCC(N(Cc2ccc(C(=O)Nc3nn[nH]n3)cc2)C(=O)c2cccc(C(F)(F)F)c2)CC1 (stereo not drawn) [Example 514, 4-{[(4-tert-Butylcyclohexyl)-(3-trifluoromethylbenzoyl)amino]methyl}-N-(2H-tetrazol-5-yl)benzamide]
29 | 6.10 | CC(Oc1ccc(OC(F)(F)F)cc1)C(=O)N(Cc1ccc(C(=O)Nc2nn[nH]n2)cc1)c1ccc(N2CCCCC2)cc1 (stereo not drawn) [Example 554, 4-({(4-Piperidin-1-ylphenyl)-[2-(4-trifluoromethoxyphenoxy)propionyl]amino}methyl)-N-(2H-tetrazol-5-yl)benzamide]
30 | 6.95 | CC(C)(C)C1CCC(N(Cc2ccc(C(=O)Nc3nn[nH]n3)cc2)C(=O)c2ccc(Cc3ccccc3)cc2)CC1 (stereo not drawn) [Example 512, 4-{[(4-tert-Butylcyclohexyl)-(4-benzylbenzoyl)amino]methyl}-N-(2H-tetrazol-5-yl)benzamide]
31 | 6.42 | O=C(Nc1nn[nH]n1)c1ccc(CN(C(=O)Nc2nc3ccc([N+](=O)[O-])cc3s2)c2ccc(C3CCCCC3)cc2)cc1 [Example 342, 4-[1-(4-Cyclohexylphenyl)-3-(6-nitrobenzothiazol-2-yl)ureidomethyl]-N-(2H-tetrazol-5-yl)benzamide]
32 | 7.72 | O=C(Nc1nn[nH]n1)c1ccc(CN(C(=O)Nc2ccc3c(c2)C(F)(F)OC(F)(F)O3)c2ccc(C3=CCCCC3)cc2)cc1 [Example 358, 4-[1-(4-Cyclohex-1-enylphenyl)-3-(2,2,4,4-tetrafluoro-4H-benzo[1,3]dioxin-6-yl)ureidomethyl]-N-(2H-tetrazol-5-yl)benzamide]

Same assay, conditions: Glu Bd Assay (III) IC50 (nM), BHK cell membranes, WGA SPA beads, 125I-glucagon

Row | Compound | IC50 [nM]
33 | CCN(CC)C(=O)c1ccc(NC(=O)N(Cc2ccc(C(=O)NCCC(=O)O)cc2)[C@H]2CC[C@H](C(C)(C)C)CC2)cc1 [Example 240, 3-{4-[1-(trans-4-tert-Butylcyclohexyl)-3-(4-diethylcarbamoylphenyl)ureidomethyl]benzoylamino}propionic acid] | 2430
